In US8454857B2, “Polymerizable liquid crystal compounds, polymerizable liquid crystal compositions, liquid crystalline polymers and optically anisotropic materials” (Zeon Corporation, priority 2008, dated 2013):

Legend:
Type in all cases: physicochemical
[1] = Measurement of phase transition temperature (polarizing optical microscope, heated 30° C. to 300° C. and cooled)
Experimental: 10 mg of the polymerizable liquid crystal compound (the polymerizable liquid crystal compounds 1 and 2 obtained in Examples 1 and 2, and a polymerizable liquid crystal compound shown by the following formula (3) (“LC242” manufactured by BASF) (Comparative Example 1) (hereinafter referred to as “polymerizable liquid crystal compound 3”)) was weighed, and placed between two glass substrates provided with a rubbed polyimide alignment film.
The substrates were heated from 30° C. to 300° C. on a hot plate, and then cooled to 30° C. A change in structure during a change in temperature was observed using a polarizing optical microscope (“ECLIPSE LV100POL” manufactured by Nikon Corporation) to determine the phase transition temperature.
In Table 1, “C” indicates “Crystal”, “N” indicates “Nematic”, and “I” indicates “Isotropic”.

[2] = Solubility in cyclopentanone at 60° C., 40 wt % solution; parameters: key: a case where the compound was dissolved in cyclopentanone is indicated by “Good”; a case where the compound was not dissolved in cyclopentanone is indicated by “Bad”; details: compound concentration 40 wt %
Experimental: The solubility of the compound at 60° C. was evaluated when preparing a solution having a compound concentration of 40 wt %. In Table 1, a case where the compound was dissolved in cyclopentanone is indicated by “Good”, and a case where the compound was not dissolved in cyclopentanone is indicated by “Bad”.

[3] = Measurement of optical anisotropy (value Δn) of cured polymer film; details: cured polymer film 4 μm, 546 nm, Δn=Re/d
Experimental: 100 parts of the polymerizable liquid crystal compound (1 to 3) was dissolved in 233 parts of cyclopentanone. 2.7 parts of a photoinitiator (“Irgacure 907” manufactured by Ciba Specialty Chemicals Co., Ltd.) was homogenously dissolved in the solution. The resulting solution was applied to a glass substrate provided with a rubbed polyimide alignment film using a bar coater (“SA-203” manufactured by Tester Sangyo Co., Ltd., Rod No. 4, shaft diameter: 12.7 mm). After drying the resulting film at 100° C. for 5 minutes on a hot plate, ultraviolet rays (1000 mJ/cm^2) were applied to the film from a mercury lamp to obtain a cured polymer film having a thickness of 4 μm.
The extinction position (θ) of the cured film was measured using an optical microscope (“ECLIPSE E600POL (transmission/reflection type)” manufactured by Nikon Corporation, equipped with a sensitive tint plate, a λ/4 wave plate, a Sénarmont compensator, and a GIF filter (546 nm). The retardation (Re) was calculated by “Re=λ(546 nm)×θ/180”. The value Δn was calculated by “Δn=Re/d” (where, d is the thickness of the liquid crystal layer). The calculation results are shown in Table 1.

[4] = Mutual solubility at 23° C. by naked eye observation when forming the cured film; parameters: key: A case where turbidity was not observed was evaluated as “Good”; a case where turbidity was observed was evaluated as “Bad”; details: naked eye observation of turbidity
Experimental: 100 parts of the polymerizable liquid crystal compound (1 to 3) was dissolved in 153 parts of cyclopentanone. After the addition of 3.3 parts of a photoinitiator (“Irgacure 379” manufactured by Ciba Specialty Chemicals Co., Ltd.), 6 parts of a polymerizable chiral compound (compound shown by the formula (X)), and 11.6 parts of a surfactant (“KH-40” manufactured by AGC Seimi Chemical Co., Ltd.; 1 wt % cyclopentanone solution), the components were homogenously dissolved to prepare a polymerizable liquid crystal composition solution.
When forming the cured film of the compound, the mutual solubility of the compound at 23° C. was evaluated by naked eye observation. A case where turbidity was not observed was evaluated as “Good”, and a case where turbidity was observed was evaluated as “Bad”.

Liquid crystallinity temperature range ([1]; heated from 30° C. to 300° C., then cooled to 30° C., between glass substrates with rubbed polyimide alignment film): 63 °C
Solubility [2]: Good
Δn [3]: 0.142
Mutual solubility [4]: Good
SMILES: C=CC(=O)OCCCCOC(=O)Oc1ccc(C(=O)Oc2ccc(OC(=O)c3ccc(OC(=O)OCCCCOC(=O)C=C)cc3)c(C)c2)cc1 [Polymerizable liquid crystal compound 3]
liquid crystallinity temperature range (in words) ([1]; summary of Table 1): liquid crystallinity within a narrow temperature range
